According to publication doi:10.1101/2024.11.06.622220v2 (biorxiv, 2024):
Like-named read-outs stand apart in the source and are kept apart here.

What was measured:
[1] = tested on: JaPTAL; details: read-out: apparent Km; also printed as 11.0 μM
[2] = tested on: JaPTAL; test: PAL activity kinetics, Michaelis-Menten; format: biochemical, Joinvillea ascendens; details: only the range for graminid PTALs is in the text

Compound: N[C@@H](Cc1ccc(O)cc1)C(=O)O [Tyr]
- Km [1]: 10.9 µM

Compound: N[C@@H](Cc1ccccc1)C(=O)O [Phe]
- Km [2]: 65.6 ± 1.4 µM
